The values that follow come from ChEMBL document CHEMBL4229365, “Synthesis of novel ring-contracted artemisinin dimers with potent anticancer activities” (Eur J Med Chem, 2018).

Active and inactive are the calls of the source. No cut-off for these calls is given here.

Series [1] deals with PC-12. As to the kind of experiment: Cell cycle arrest in rat PC12 cells assessed as accumulation at G1 phase at 5 uM after 24 hrs by propidium iodide/RNase A staining-based flow cytometric analysis (reference value: 58.07%). The series is classed as functional. Background: In flow cytometry, cells or beads pass a laser one at a time.
Series [2] has as its system PC-12. As to the kind of experiment: Cell cycle arrest in rat PC12 cells assessed as accumulation at S phase at 5 uM after 24 hrs by propidium iodide/RNase A staining-based flow cytometric analysis (reference value: 30.30%). The class given is functional.
The subject of series [3] is PC-12. As to the kind of experiment: Cell cycle arrest in rat PC12 cells assessed as accumulation at G1 phase at 1 uM after 24 hrs by propidium iodide/RNase A staining-based flow cytometric analysis (reference value: 58.07%). The class given is functional.
Series [4] has as its system PC-12. As to the kind of experiment: Cell cycle arrest in rat PC12 cells assessed as accumulation at G2 phase at 1 uM after 24 hrs by propidium iodide/RNase A staining-based flow cytometric analysis (reference value: 11.63%). The series is classed as functional.
Series [5] concerns PC-12. As to the kind of experiment: Induction of apoptosis in rat PC12 cells assessed as apoptotic cells up to 3.13 uM after 24 hrs by Annexin V-FITC/propidium iodide staining-based flow cytometric analysis (reference value: 6.56%). The class given is functional.
The subject of series [6] is PC-12. The series is described as follows: Induction of apoptosis in rat PC12 cells assessed as increase in cleaved caspase3 expression level after 72 hrs by Western blot analysis. The series is classed as functional, cell-based. On the technique in general: Immunoblotting shows a protein as a band on a membrane.
The subject of series [7] is A-375. The series is described as follows: Antiproliferative activity against human A375 cells after 72 hrs by CCK-8 assay. As to conditions: A-375, 72 h. The class given is functional, cell-based. A general note: Tetrazolium assays rely on reduction of a dye to a coloured formazan, in cell work by metabolically active cells.
Series [8] relates to PC-12. The series is described as follows: Induction of apoptosis in rat PC12 cells assessed as increase in Bax protein expression up to 5 uM after 72 hrs by Western blot analysis. The series is classed as functional, cell-based.
Series [9] relates to PC-12. The series is described as follows: Induction of apoptosis in rat PC12 cells assessed as nuclear condensation up to 3.13 uM after 24 hrs by Hoechst 33258 staining-based fluorescence microscopic method. The series is classed as functional, cell-based.
The subject of series [10] is PC-12. The series is described as follows: Induction of apoptosis in rat PC12 cells assessed as nuclear fragmentation up to 3.13 uM after 24 hrs by Hoechst 33258 staining-based fluorescence microscopic method. The series is classed as functional, cell-based.
In series [11] the test system is A549. The series is described as follows: Antiproliferative activity against human A549 cells after 72 hrs by CCK-8 assay. The class given is functional, cell-based. The following applies: A549, 72 h.
Series [12] has as its system L02. As to the kind of experiment: Antiproliferative activity against human L02 cells after 72 hrs by CCK-8 assay. The series is classed as cell-based. As to conditions: L02, 72 h.
Series [13] has as its system PC-12. The series is described as follows: Cell cycle arrest in rat PC12 cells assessed as accumulation at G2 phase at 5 uM after 24 hrs by propidium iodide/RNase A staining-based flow cytometric analysis (reference value: 11.63%). The series is classed as functional.
The test system of series [14] is SH-SY5Y. The series is described as follows: Antiproliferative activity against human SH-SY5Y cells after 72 hrs by CCK-8 assay. The series is classed as functional, cell-based.
Series [15] has as its system PC-12. The series is described as follows: Cell cycle arrest in rat PC12 cells assessed as accumulation at S phase at 1 uM after 24 hrs by propidium iodide/RNase A staining-based flow cytometric analysis (reference value: 30.30%). The class given is functional.
Series [16] relates to PC-12. The series is described as follows: Cell cycle arrest in rat PC12 cells assessed as accumulation at G1 phase after 24 hrs by propidium iodide/RNase A staining-based flow cytometric analysis. The class given is functional.
The test system of series [17] is PC-12. As to the kind of experiment: Induction of apoptosis in rat PC12 cells assessed as decrease in Bcl-xL level up to 5 uM after 72 hrs by Western blot analysis. The series is classed as functional, cell-based.
For series [18], the system named is HCT-116. The series is described as follows: Antiproliferative activity against human HCT116 cells after 72 hrs by CCK-8 assay. The class given is functional, cell-based. The following applies: HCT-116, 72 h.
Series [19] is described as follows: Clearance in human liver microsomes at 1.11 uM preincubated for 10 mins followed by NADPH addition by LC-MS/MS analysis. The class given is ADME, microsome. As to conditions: read-out: CLH.
The test system of series [20] is PC-12. The series is described as follows: Induction of apoptosis in rat PC12 cells assessed as increase in Bad protein expression up to 5 uM after 72 hrs by Western blot analysis. The series is classed as functional, cell-based.
Series [21] relates to PC-12. The series is described as follows: Cell cycle arrest in rat PC12 cells assessed as accumulation at G1 phase at 3 uM after 24 hrs by propidium iodide/RNase A staining-based flow cytometric analysis (reference value: 58.07%). The series is classed as functional.
Series [22] concerns PC-12. As to the kind of experiment: Cell cycle arrest in rat PC12 cells assessed as accumulation at S phase at 3 uM after 24 hrs by propidium iodide/RNase A staining-based flow cytometric analysis (reference value: 30.30%). The class given is functional.
A short description of series [23]: Half life in human liver microsomes at 1.11 uM preincubated for 10 mins followed by NADPH addition by LC-MS/MS analysis. The series is classed as ADME, microsome.
Series [24] concerns PC-12. The series is described as follows: Induction of apoptosis in rat PC12 cells assessed as increase in cleaved caspase9 expression level after 72 hrs by Western blot analysis. The class given is functional, cell-based.
Series [25] deals with PC-12. As to the kind of experiment: Antiproliferative activity against rat PC12 cells after 72 hrs by CCK-8 assay. The class given is functional, cell-based. The following applies: PC-12, 72 h.
In series [26] the test system is PC-12. The series is described as follows: Cell cycle arrest in rat PC12 cells assessed as accumulation at G2 phase at 3 uM after 24 hrs by propidium iodide/RNase A staining-based flow cytometric analysis (reference value: 11.63%). The series is classed as functional.
Series [27] can be described thus: Stability of the compound in air at 60 degC after 24 hrs. The class given is physicochemical.

In general, IC50 refers to the concentration at which inhibition is half-maximal. Higher therefore signals weaker potency. Broadly, the half-life is how long it takes for the measured level to halve. The low end stands for rapid decline, the high end for slow decline. On to `C[C@@H]1CC[C@@H]2[C@]34OO[C@](C)(CC[C@@H]13)O[C@H]4O[C@]2(C)COP(=O)(OC[C@@]1(C)O[C@@H]2O[C@@]3(C)CC[C@H]4[C@H](C)CC[C@@H]1[C@@]24OO3)Oc1ccccc1`, for which the Activity in [1] was 86.06%; in series [2], 10.33%; in series [3] it was 76.54%; in [4], 8.77%; in [5] it was 6.56 - 31.04%; in series [6], “Dose-dependent effect”. The Activity in series [13] is 3.61%; in series [15], 14.7%; in series [16], “Dose-dependent effect”; in series [21], 79.4%; in series [22], 13.79%; in series [24], “Dose-dependent effect”. In addition, the Activity in series [26] worked out at 6.81%. For the same compound, the IC50 in series [7] is 5.96 µM; in [11], 6.37 µM; in series [12] it was 10.3 µM; in series [14], 3.48 µM; in [18], 6.61 µM; in [25], 1.56 µM. Also, the outcome in series [8], in [9], in [10], in series [17] and in [20] was Active. In addition, the microsomal CLint at 1.11 µM in series [19] is 54 µL/min/mg. The compound further showed a half-life at 1.11 µM in series [23] of 18.3 min. For the same compound, the Stability entry in [27] is given as “Stable”.

In the case of `C[C@@H]1CC[C@H]2[C@@H](O)[C@H](OC(=O)CCC(=O)O[C@@H]3O[C@@H]4O[C@@]5(C)CC[C@H]6[C@H](C)CC[C@@H]([C@H]3O)[C@@]46OO5)O[C@@H]3O[C@@]4(C)CC[C@@H]1[C@]32OO4`, the IC50 in series [7] was 33.5 µM; in series [11], 45.7 µM; in series [12], over 50 µM; in [14], over 50 µM; in series [18], 36.3 µM; in series [25], over 50 µM. Further, the microsomal CLint at 1.11 µM in series [19] was 124 µL/min/mg. The half-life at 1.11 µM in series [23] amounted to 8 min. Besides, the Stability result in [27] is “Stable”.

As for `C[C@]12CC[C@H]3[C@@H](CCC4=CC(=O)CC[C@@]43C)[C@@H]1CC[C@@H]2O` [TESTOSTERONE], in [23], the half-life at 1.11 µM stood at 10.3 min.

In the case of `C[C@@H]1CC[C@@H]2[C@]34OO[C@](C)(CC[C@@H]13)O[C@H]4O[C@]2(C)C(=O)O`, the IC50 was over 50 µM in series [7]; over 50 µM in series [11]; over 50 µM in series [12]; over 50 µM in series [14]; over 50 µM in [18]; 37.3 µM in [25].

As to `C[C@@H]1CC[C@@H]2[C@]34OO[C@](C)(CC[C@@H]13)O[C@H]4O[C@]2(C)C(=O)OCCCCCCCCOC(=O)[C@@]1(C)O[C@@H]2O[C@@]3(C)CC[C@H]4[C@H](C)CC[C@@H]1[C@@]24OO3`, the half-maximal inhibitory concentration (IC50) in series [7] amounted to 5.73 µM; in [11] it was 4.69 µM; in series [12], 4.84 µM; in [14] it was 4.87 µM; in series [18], 31.6 µM; in [25], 5.67 µM.

Regarding `C[C@@H]1CC[C@H]2[C@@H](C)C(=O)O[C@@H]3O[C@@]4(C)CC[C@@H]1[C@]32OO4` [ARTEMISININ], the concentration for half-maximal inhibition (IC50) in [7], in [11], in series [12], in series [14], in [18] and in series [25] was over 50 µM throughout.
